Our source for the IC50 values is US8426397B2, “3 (3-pyrimidin-2-ylbenzyl)-1,2,4-triazolo[4,3-b]pyridazine derivatives” (Merck Patent Gesellschaft mit Beschränkter Haftung, priority 2008, dated 2013).

Each structure is given as a SMILES string.

Usually IC50 stands for the concentration at which inhibition is half-maximal.

For assay [1], the target named is T1, Met kinase (Homo sapiens, UniProt P08581). Briefly: Met kinase flashplate method (enzyme). The class given is biochemical. Further details: 6His (N); purchased Upstate 14-526; host or cells: Sf21 insect cells (S. frugiperda), baculovirus. Particulars: Met kinase inhibition. The source says:
According to the manufacturer's data (Met, active, Upstate, catalogue No. 14-526), Met kinase is expressed for the purposes of protein production in insect cells (Sf21; S. frugiperda) and subsequent affinity-chromatographic purification as “N-terminal 6His-tagged” recombinant human protein in a baculovirus expression vector.
Flashplate Method (Met Kinase)
The test plates used are 96-well Flashplate® microtitre plates from Perkin Elmer (Cat. No. SMP200). The components of the kinase reaction described below are pipetted into the assay plate. The Met kinase and the substrate poly Ala-Glu-Lys-Tyr, (pAGLT, 6:2:5:1), are incubated for 3 hrs at room temperature with radioactively labelled ^33P-ATP in the presence and absence of test substances in a total volume of 100 μl. The reaction is terminated using 150 μl of a 60 mM EDTA solution. After incubation for a further 30 min at room temperature, the supernatants are filtered off with suction, and the wells are washed three times with 200 μl of 0.9% NaCl solution each time. The measurement of the bound radioactivity is carried out by means of a scintillation measuring instrument (Topcount NXT, Perkin-Elmer).
The full value used is the inhibitor-free kinase reaction. This should be approximately in the range 6000-9000 cpm. The pharmacological zero value used is staurosporin in a final concentration of 0.1 mM. The inhibitory values (IC50) are determined using the RS1_MTS program.
Kinase reaction conditions per well:
10 μl of substance to be tested in assay buffer with 10% of DMSO
10 μl of ATP (final concentration 1 μM cold, 0.35 μCi of ^33P-ATP)
50 μl of Met kinase/substrate mixture in assay buffer;
• (10 ng of enzyme/well, 50 ng of pAGLT/well) • Solutions used: • Assay buffer: • 50 mM HEPES • 3 mM magnesium chloride • 3 μM sodium orthovanadate • 3 mM manganese(II) chloride • 1 mM dithiothreitol (DTT) • pH=7.5 (to be set using sodium hydroxide) • Stop solution: • 60 mM Titriplex III (EDTA) • ^33P-ATP: Perkin-Elmer; • Met kinase: Upstate, Cat, No. 14-526, Stock 1 μg/10 μl; spec. activity 954 U/mg; • Poly-Ala-Glu-Lys-Tyr, 6:2:5:1: Sigma Cat. No. P1152 In-Vivo Tests
Target sequence in this assay (P08581 974-1390 limits assumed): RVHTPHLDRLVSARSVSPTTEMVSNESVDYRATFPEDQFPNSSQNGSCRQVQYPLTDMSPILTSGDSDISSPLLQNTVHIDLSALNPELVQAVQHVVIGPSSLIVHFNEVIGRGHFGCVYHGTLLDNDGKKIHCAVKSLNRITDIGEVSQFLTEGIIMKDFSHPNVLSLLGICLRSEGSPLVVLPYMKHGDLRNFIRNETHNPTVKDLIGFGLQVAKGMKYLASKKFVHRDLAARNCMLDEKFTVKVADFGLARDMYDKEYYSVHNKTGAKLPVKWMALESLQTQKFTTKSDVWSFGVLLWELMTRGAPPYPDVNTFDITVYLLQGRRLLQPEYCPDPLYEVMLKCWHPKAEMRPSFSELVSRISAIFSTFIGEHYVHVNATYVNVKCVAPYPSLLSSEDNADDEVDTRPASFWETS

Assay [2] deals with T1, Met kinase. Kind of assay: Met kinase inhibition (cell). It is filed as cell-based.
Target sequence in this assay (P08581 25-1390): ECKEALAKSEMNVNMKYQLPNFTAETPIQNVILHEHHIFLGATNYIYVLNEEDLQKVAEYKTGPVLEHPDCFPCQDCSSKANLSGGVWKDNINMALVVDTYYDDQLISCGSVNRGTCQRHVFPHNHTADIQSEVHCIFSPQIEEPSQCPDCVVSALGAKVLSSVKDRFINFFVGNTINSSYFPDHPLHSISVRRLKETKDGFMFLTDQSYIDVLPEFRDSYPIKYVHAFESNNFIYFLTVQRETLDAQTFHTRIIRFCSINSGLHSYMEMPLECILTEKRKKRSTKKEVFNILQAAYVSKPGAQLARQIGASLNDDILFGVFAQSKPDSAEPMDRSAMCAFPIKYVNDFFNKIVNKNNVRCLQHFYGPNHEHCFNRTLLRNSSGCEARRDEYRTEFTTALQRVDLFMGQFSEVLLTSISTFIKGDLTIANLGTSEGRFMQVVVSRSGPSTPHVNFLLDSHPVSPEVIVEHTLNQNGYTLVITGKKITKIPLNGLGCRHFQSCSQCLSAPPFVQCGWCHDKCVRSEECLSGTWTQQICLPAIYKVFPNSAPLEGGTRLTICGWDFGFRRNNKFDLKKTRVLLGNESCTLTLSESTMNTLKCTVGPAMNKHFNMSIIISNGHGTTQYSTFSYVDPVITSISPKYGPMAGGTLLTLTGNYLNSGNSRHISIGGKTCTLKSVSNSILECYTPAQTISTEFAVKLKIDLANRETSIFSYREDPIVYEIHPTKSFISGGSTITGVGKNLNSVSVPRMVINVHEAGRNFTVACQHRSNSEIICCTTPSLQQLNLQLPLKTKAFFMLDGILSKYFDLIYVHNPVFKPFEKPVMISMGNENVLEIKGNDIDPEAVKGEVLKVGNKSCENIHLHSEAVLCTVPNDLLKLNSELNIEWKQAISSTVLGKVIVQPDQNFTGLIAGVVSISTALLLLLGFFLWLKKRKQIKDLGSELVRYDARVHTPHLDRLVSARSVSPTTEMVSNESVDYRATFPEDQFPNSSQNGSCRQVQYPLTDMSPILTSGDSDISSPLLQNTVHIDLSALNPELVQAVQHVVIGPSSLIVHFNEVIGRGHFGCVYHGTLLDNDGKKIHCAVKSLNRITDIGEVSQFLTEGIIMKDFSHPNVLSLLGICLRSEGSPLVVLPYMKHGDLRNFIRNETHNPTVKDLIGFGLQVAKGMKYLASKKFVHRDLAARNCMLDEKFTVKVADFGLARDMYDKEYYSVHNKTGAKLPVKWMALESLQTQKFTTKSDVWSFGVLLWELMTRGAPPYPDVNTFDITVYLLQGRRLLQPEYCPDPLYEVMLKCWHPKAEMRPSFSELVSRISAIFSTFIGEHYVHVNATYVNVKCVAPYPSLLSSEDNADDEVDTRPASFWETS

For `COc1ccc2nnc(C(F)(F)c3cccc(-c4ncc(-c5cnn(CCN6CCCC6)c5)cn4)c3)n2n1` [A20], the 50% inhibitory concentration (IC50) on Met kinase [1] and on Met kinase [2] was 1 to 100 nM in each case.

In the case of `CNC(=O)c1ccc2nnc(Cc3cccc(-c4ncc(OCCOC)cn4)c3)n2n1` [A28], the IC50 at Met kinase [1] fell in the range of 1 to 100 nM; on Met kinase [2], 100 to 10000 nM.

For `COCCOc1cnc(-c2cccc(Cc3nnc4ccc(C(=O)O)nn34)c2)nc1` [A38, 3-{3-[5-(2-methoxyethoxy)pyrimidin-2-yl]benzyl}-1,2,4-triazolo[4,3-b]pyridazine-6-carboxylic acid], the IC50 is 1 to 100 nM at Met kinase [1] and 100 to 10000 nM at Met kinase [2].

As for `CCCNC(=O)c1ccc2nnc(Cc3cccc(-c4ncc(OCCOC)cn4)c3)n2n1` [A39, N-propyl-3-{3-[5-(2-methoxyethoxy)pyrimidin-2-yl]benzyl}-1,2,4-triazolo[4,3-b]pyridazine-6-carboxamide], the IC50 at Met kinase [1] lay within 1 to 100 nM; on Met kinase [2] it was 100 to 10000 nM.

Take `COCCOc1cnc(-c2cccc(Cc3nnc4ccc(C(=O)N(C)C)nn34)c2)nc1` [A40]: the IC50 was 1 to 100 nM at Met kinase [1] and 100 to 10000 nM against Met kinase [2].

`COCCOc1cnc(-c2cccc(Cc3nnc4ccc(C(=O)NCCO)nn34)c2)nc1` [A41]: the IC50 was 1 to 100 nM against Met kinase [1] and greater than 10000 nM against Met kinase [2].
